Experimental data: US6468522B1, “Controlled release of thioamide moiety-containing therapeutic agents” (priority 1999, dated 2002)

Tests used:
[1] = Reductive release of drug from disulfide conjugate (DTT or glutathione, TLC); assay type: physicochemical; conditions: organic phase
Description: III Release of UC781 from mPEG-S—S-UC781. […] Then, 0.5 ml of 6 mM dithiothreitol (DTT) in DCM was added to the conjugate solution.
After 2 hours at room temperature, the reaction mixture was taken to dryness by speed vacuum.
In an alternate procedure to the above, cysteamine may be used in place of 1-amino-2-methyl-2-propanethiol, which produces a UC781 conjugate (PEG-CO—NH—CH2—CH2—S—S—UC781) with less sterically hindered thiol groups and therefore with a ˜100-fold faster release under reducing conditions.

[2] = Kinetics following intravenous injection of PEG-S-S-UC781 in rabbits; assay type: in vivo; conditions: rabbit
Description: The wavelength for detection of UC781 is 290 nm.
An in-vivo experiment was done in duplicate in rabbits (about 3.6 kg, New Zealand white, female), performed according to protocol #I99-054 approved by the IACUC of UMDNJ-Robert Wood Johnson Medical School. […] Blood samples were drawn from the auricular artery of the opposite ear prior to and at predetermined time points after injection. Immediately after the blood was drawn, 1 ml was mixed with 2 ml of acetonitrile, vortexed, kept on ice for 10 min and then centrifuged at 1000×g for 10 min at 4° C. The supernatant was collected and analyzed by reverse phase HPLC, as described above. Blood levels were determined with time by HPLC with and without the DTT reductive cleavage step (FIG. 7).

[3] = Kinetics following intramuscular injection of PEG-S-S-UC781 in mice; assay type: in vivo
Description: An in-vivo experiment was done twice in mice (about 25 g, […]), performed according to protocol #I00-001, approved by the IACUC. […] Twenty mg, equivalent to 0.5 mg of UC781, was dissolved in 1 ml of PBS and injected into the leg muscle. At each time point, a mouse was euthanized, blood was collected and the injected muscle was removed. The blood samples were treated with 2 volumes of acetonitrile as described above. The tissue samples were homogenized with 1 ml of PBS and then treated with 2 volumes of acetonitrile, as above. The samples were then analyzed by reverse phase HPLC. […] Recovery and extraction efficiency from the muscle was tested by injection into the excised muscle from a freshly euthanized mouse.

HIV-RT = HIV-RT (Human immunodeficiency virus type 1 group M subtype B, UniProt P03366); assay: Reverse transcriptase (RT) inhibition assay; assay type: biochemical; conditions: for UC781 concentration found by RT assay: predicted 30 nM
Description: UC781 standard solutions were prepared in DMSO. The stock solution of HIV-RT (13.5 Units/μl) was diluted to 25 mUnits/μl in buffer comprising 50 mM Tris-HCl, pH 8.0, 1 mM DTT, 0.01% bovine serum albumin (BSA). Each assay tube contained 40 μl of a solution comprising 50 mM Tris-HCl, pH 8.0, 4 mM DTT, 12.4 mM MgCl2, 50 mM KCl, 0.01% BSA, 10 μg/ml poly(A), 0.01 mM dTTP and […] [α-^32P]dTTP, 2 μl of diluted RT and 3 μl of sample dissolved in DMSO. Samples were incubated at 37° C. for 30 minutes. The polymerization reaction was stopped by adding 0.15 mg/ml of salmon sperm DNA and chilling on ice. An aliquot (20 μl) of each reaction mixture was spotted onto square stamped GF/C filter paper (12.5 cm in diameter) presoaked with 10% trichloroacetic acid (TCA). After the spots were dry, the paper was rinsed with 50 ml of ice cold 10% TCA twice, 50 ml of ice cold water three times and then once with 25 ml of ice cold 95% ethanol in a Buchner funnel. The paper was dried, cut into squares and each square was counted in 4 ml of LSC cocktail (National Diagnostics).
The reverse transcriptase inhibition (RT) assay was used to confirm that the compound released in blood is truly active UC781. […] As a control, authentic UC781 was run on the HPLC column and the peak was collected at 24.2 minutes. […] An aliquot of each HPLC fraction, providing a predicted concentration of 30 nM in the RT assay, was analyzed.

in vitro = conditions: rabbit
Description: UC781 was analyzed using an HPLC reverse phase column, PRP-1 (Hamilton, Reno, Nev.), under the following condition: mobile phase A: 20% acetonitrile, mobile phase B: 90% acetonitrile, flow rate: 1 ml/min. Gradient: 0-2 min, 100% A; 2-20 min, linear gradient from 100% A to 100% B; 20-28 min, 100% B; 28—30 min, linear gradient from 100% B to 100% A; 30-35 min, 100% A. Under these experimental conditions, the retention time for UC781 is 24.2 min. The wavelength for detection of UC781 is 290 nm.
To each 1 ml sample of EDTA-treated rabbit blood, 2 ml of acetonitrile was added, mixed and kept on ice for 10 min. The mixture was centrifuged at 1000×g for 10 min. The supernatant was collected and an aliquot (300 μl) was injected into the reverse phase column. […] After centrifugation, 400 μl of the supernatant was analyzed, either without or with DTT pretreatment (3 mM for 2 hours at room temperature).
However, prior reduction with DTT should give the total concentration of UC781 since the conjugated UC781 is converted into the free form prior to HPLC. […] Recovery through the extraction procedure was determined by spiking a known amount of either free or conjugated UC781 into EDTA-treated rabbit blood prior to acetonitrile extraction.

release of drug from conjugate by DTT [1]	Compound	UC781 concentration in plasma higher than in matched whole blood ([2]; EDTA-treated blood, duplicate sample)	half-life of UC781 in the bloodstream ([2]; after iv PEG-S-S-UC781)	level of UC781 in tissue samples ([3]; mouse injected muscle, after 1 hour)	UC781 in blood samples ([3]; mouse, im, HPLC)	UC781 concentration found by RT assay (HIV-RT; HPLC peak fraction of rabbit blood 5 min after iv PEG-S-S-UC781)	activity of compound recovered from blood (HIV-RT; RT assay, blood versus standard)	UC781 concentration found by RT assay (HIV-RT; authentic UC781 standard HPLC fraction)	recovery at 10 min, 10 µg/mL (in vitro)
reductively released	O=c1[nH]c(=S)ccn1[C@@H]1O[C@H](CO)[C@@H](O)[C@H]1O [4-thiouridine, 4-Thiouridine]								
	CC(C)=CCOc1cc(NC(=S)c2ccoc2C)ccc1Cl [UC781, N-[4-chloro-3-(3-methyl-2-butenyloxy)phenyl]-2-methyl-3-furancarbothioamide]	about 10%	several minutes	more than 10%	below the detection limit	26 nM	fully active	27 nM	113%
